11 molecules from ChEMBL document CHEMBL1201862, “PubChem BioAssay data set” (2004) can be followed below.

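Results reflect a 48-hour exposure of cells in 96-well plates to compound at five concentrations. At the GI50, growth is halved.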 The source made the active and inactive calls. Rule as the data show it: active = GI50 up to about 1.1 µM and inactive = higher.

Test systems include SF-268; CCRF-CEM; U-251; SF-295; TK-10; CAKI-1; DU-145; BT-549; OVCAR-5; SW-620; SN12C; SF-539; MDA-MB-231; LOX IMVI; RPMI-8226; T47D; 786-0; Hs-578T; K562.
What all share (experiment): NCI anticancer screen, dose series, 48 h

In the case of `OC1COC(OCc2ccccc2)C(O)C1O` (configuration not stated), the GI50 in the assay on SF-268, in the assay with CCRF-CEM, with U-251, in the assay with SF-295, in the assay with TK-10 and in the assay with CAKI-1 was > 100 µM (inactive) throughout. Moreover, the GI50 in the assay on DU-145, in the assay on BT-549, in the assay on OVCAR-5, in the assay on SW-620, in the assay on SN12C and with SF-539 was > 100 µM (inactive) throughout. The GI50 in the assay with MDA-MB-231, in the assay with LOX IMVI, in the assay on RPMI-8226, in the assay on T47D, in the assay on 786-0 and in the assay with Hs-578T was > 100 µM (inactive) each time. Also, in the assay with K562, the GI50 was > 100 µM (inactive).

Consider `COc1ccccc1OCC(=N/NC(=O)c1ccncc1)/N=C/c1cccnc1`, for which the GI50 in the assay on SF-268, in the assay with CCRF-CEM, in the assay with U-251, in the assay on SF-295, in the assay on TK-10 and with CAKI-1 was > 100 µM (inactive) in each case. Besides, the GI50 in the assay with DU-145, in the assay with BT-549, in the assay on OVCAR-5, in the assay on SW-620, in the assay on SF-539 and in the assay with MDA-MB-231 was > 100 µM (inactive) each time. Further, the GI50 in the assay with LOX IMVI, in the assay on RPMI-8226, in the assay on T47D, in the assay on 786-0, in the assay on Hs-578T and in the assay with K562 was > 100 µM (inactive) throughout.

`Cc1cc(Cl)ccc1NC(=O)/C(Cl)=C(/Cl)C(=O)O`: the GI50 with SF-268 is 52.8 µM (inactive); in the assay with CCRF-CEM it was 17.3 µM (inactive); with U-251, 19 µM (inactive); with SF-295 it was > 100 µM (inactive); in the assay with TK-10, 17.5 µM (inactive); in the assay on CAKI-1, 18.3 µM (inactive). The GI50 in the assay on DU-145 was 23.9 µM (inactive); in the assay with BT-549, 19.1 µM (inactive); with OVCAR-5 it was 19.5 µM (inactive); in the assay with SW-620 it was 21 µM (inactive); in the assay with SN12C it was 18.1 µM (inactive); in the assay with SF-539, 23 µM (inactive). Also, the GI50 with MDA-MB-231 is 21.7 µM (inactive); in the assay on LOX IMVI, 19.9 µM (inactive); in the assay with RPMI-8226 it was 24 µM (inactive); in the assay on T47D it was 22.8 µM (inactive); in the assay with 786-0 it was 23.1 µM (inactive); in the assay on Hs-578T it was 26.4 µM (inactive). For the same molecule, the GI50 in the assay with K562 was 31.8 µM (inactive).

For `N#Cc1c2c(c(N)oc1=O)C(c1ccccc1)CC(=O)N2` (configuration not stated), the GI50 in the assay on SF-268, with CCRF-CEM, in the assay with U-251, with SF-295, with TK-10 and in the assay with CAKI-1 was > 100 µM (inactive) throughout. The GI50 in the assay with DU-145, in the assay with BT-549, with OVCAR-5, in the assay with SW-620, in the assay with SN12C and in the assay with SF-539 was > 100 µM (inactive) in each case. In addition, the GI50 in the assay with MDA-MB-231, with LOX IMVI, in the assay on RPMI-8226, with T47D, with 786-0 and in the assay with Hs-578T was > 100 µM (inactive) throughout. The GI50 in the assay with K562 is > 100 µM (inactive).

Take `Cc1cc(S(=O)(=O)N=C2N(Cc3ccccc3)CCN2Cc2ccccc2)c(S)cc1Cl`: the GI50 was 36 µM (inactive) in the assay on SF-268; > 100 µM (inactive) with CCRF-CEM; 54.8 µM (inactive) in the assay with U-251; 48.9 µM (inactive) with SF-295; > 100 µM (inactive) in the assay with TK-10; > 100 µM (inactive) in the assay on CAKI-1. The GI50 with DU-145, in the assay on BT-549, with OVCAR-5, with SW-620, with SN12C and in the assay on SF-539 was > 100 µM (inactive) in each case. In addition, the GI50 in the assay on MDA-MB-231 was > 100 µM (inactive); in the assay with LOX IMVI, 70.8 µM (inactive); in the assay on RPMI-8226, > 100 µM (inactive); in the assay with T47D it was 10.8 µM (inactive); in the assay with 786-0, > 100 µM (inactive); in the assay on Hs-578T it was > 100 µM (inactive). In addition, in the assay on K562, the GI50 is > 100 µM (inactive).

Consider `COc1cc(/C=C2\CCC(C)C3=C(c4cc(OC)c(OC)c(OC)c4)C(C#N)=C(N)OC32)cc(OC)c1OC` (configuration not stated), for which the GI50 is 3.59 µM (inactive) with SF-268; 2.05 µM (inactive) in the assay on CCRF-CEM; 3.08 µM (inactive) in the assay with U-251; 3.65 µM (inactive) with SF-295; 4.21 µM (inactive) with TK-10; 4.73 µM (inactive) with CAKI-1. Also, the GI50 with DU-145 was 5.09 µM (inactive); with BT-549 it was 5.97 µM (inactive); in the assay on OVCAR-5 it was 6.56 µM (inactive); in the assay on SW-620, 3.97 µM (inactive); with SN12C, 3.21 µM (inactive); in the assay on SF-539, 2.26 µM (inactive). The GI50 is 2.45 µM (inactive) with MDA-MB-231; 2 µM (inactive) in the assay on LOX IMVI; 1.63 µM (inactive) in the assay with RPMI-8226; 2.1 µM (inactive) in the assay on T47D; 1.95 µM (inactive) in the assay on 786-0; 2.1 µM (inactive) in the assay on Hs-578T. In the assay with K562, the GI50 was 2.85 µM (inactive).

Take `O=C(O)c1ccc(C(=O)Nc2cccc3ccccc23)c(C(=O)O)c1`: the GI50 in the assay on SF-268, with CCRF-CEM, in the assay with U-251, in the assay on SF-295, in the assay on TK-10 and in the assay on CAKI-1 was > 100 µM (inactive) in each case. For the same molecule, the GI50 in the assay on DU-145, in the assay on BT-549, in the assay on OVCAR-5, in the assay on SW-620, in the assay with SN12C and in the assay on SF-539 was > 100 µM (inactive) each time. Also, the GI50 in the assay on MDA-MB-231, in the assay on LOX IMVI, with RPMI-8226, with T47D, with 786-0 and in the assay with Hs-578T was > 100 µM (inactive) each time. Further, the GI50 in the assay on K562 is > 100 µM (inactive).

On to `COC(=O)CCCC(=O)NC1=C(NCc2ccccc2)C(=O)c2ccccc2C1=O`, for which the GI50 was > 100 µM (inactive) with SF-268; 36.3 µM (inactive) in the assay with CCRF-CEM; > 100 µM (inactive) in the assay on U-251; > 10 µM (inactive) in the assay on SF-295; > 100 µM (inactive) with TK-10; > 100 µM (inactive) in the assay with CAKI-1. In addition, the GI50 in the assay on DU-145 was > 100 µM (inactive); with BT-549 it was 28.6 µM (inactive); with OVCAR-5, > 100 µM (inactive); in the assay on SW-620, 60.8 µM (inactive); with SN12C, 52.5 µM (inactive); in the assay on SF-539, 36.4 µM (inactive). For the same molecule, the GI50 with MDA-MB-231 is 50.1 µM (inactive); with LOX IMVI it was 46.2 µM (inactive); with RPMI-8226, 49.5 µM (inactive); in the assay on T47D it was 59.3 µM (inactive); in the assay with 786-0, 63.8 µM (inactive); with Hs-578T, > 100 µM (inactive). Also, the GI50 with K562 is 45.6 µM (inactive).

`COC(=O)/C(C#N)=C1\NC(=O)CC(c2ccccc2)C1C#N` (configuration not stated): the GI50 in the assay on SF-268, in the assay on CCRF-CEM, in the assay with SF-295, with TK-10, in the assay with CAKI-1 and in the assay on DU-145 was > 100 µM (inactive) throughout. The GI50 with BT-549, in the assay with OVCAR-5, with SW-620, with SN12C, with SF-539 and with MDA-MB-231 was > 100 µM (inactive) throughout. Besides, the GI50 in the assay with LOX IMVI, with RPMI-8226, in the assay with T47D, in the assay with 786-0, in the assay on Hs-578T and in the assay with K562 was > 100 µM (inactive) throughout.

Consider `NNC(=O)c1nnn(N)c1S`, for which the GI50 in the assay with SF-268 is > 100 µM (inactive); in the assay with CCRF-CEM, 66.1 µM (inactive); with U-251 it was > 100 µM (inactive); in the assay on SF-295 it was > 100 µM (inactive); in the assay on TK-10, > 100 µM (inactive); in the assay with CAKI-1, 84.5 µM (inactive). The GI50 with DU-145, in the assay with BT-549, in the assay with OVCAR-5, in the assay with SW-620, with SN12C and in the assay on SF-539 was > 100 µM (inactive) in each case. Also, the GI50 in the assay on MDA-MB-231 is 45.4 µM (inactive); in the assay with LOX IMVI it was 79.6 µM (inactive); in the assay with RPMI-8226, > 100 µM (inactive); with T47D, > 100 µM (inactive); in the assay with 786-0, 93.8 µM (inactive); in the assay on Hs-578T, > 100 µM (inactive). Besides, the GI50 in the assay with K562 is 36.8 µM (inactive).

Turning to `COc1cc(C2c3cc4c(cc3OC(NCCO)C2C)OCO4)cc(OC)c1OC` (configuration not stated), the GI50 with SF-268 is 2.05 µM (inactive); with CCRF-CEM, 0.197 µM (active); with U-251 it was 0.406 µM (active); with SF-295, 0.274 µM (active); in the assay on TK-10 it was 15.9 µM (inactive); in the assay on CAKI-1, 0.485 µM (active). In addition, the GI50 in the assay on DU-145 was 0.678 µM (active); in the assay with BT-549, 3.66 µM (inactive); with OVCAR-5, 7.48 µM (inactive); with SW-620, 0.326 µM (active); in the assay with SN12C, 0.658 µM (active); in the assay with SF-539, 0.232 µM (active). For the same molecule, the GI50 is 1.6 µM (inactive) in the assay with MDA-MB-231; 0.42 µM (active) in the assay with LOX IMVI; 0.389 µM (active) with RPMI-8226; > 74.3 µM (inactive) in the assay on T47D; 1.8 µM (inactive) with 786-0; 0.325 µM (active) in the assay on Hs-578T. Moreover, in the assay on K562, the GI50 is 0.195 µM (active).
